Consider 25 compounds from US9216173B2, “2-Pyridyl carboxamide-containing spleen tyrosine kinase (SYK) inhibitors” (Merck Sharp & Dohme Corp., priority 2011, dated 2015).

Structures are written as SMILES.

The IC50 is the concentration that inhibits the measured activity by half.

The target of one experiment is T1, recombinant human GST-SYK (Homo sapiens, UniProt P43405).
T1 construct: purchased Carna Biosciences 08-176
The experiment in a line: Homogeneous Time-Resolved Fluorescence (HTRF) assay for the recombinant human Syk enzyme. It is filed as biochemical. The conditions noted are these: GST-hSYK 5 pM, ATP 25 μM, 10-dose titration 10 μM to 0.508 nM; read-out: IC50. On the procedure:
Homogeneous Time-Resolved Fluorescence (HTRF) Assay for the Recombinant Human Syk Enzyme
A recombinant GST-hSYK fusion protein was used to measure potency of compounds to inhibit human Syk activity. […] Final volume of the reaction was 10 μL. Phosphorylation of the peptide was allowed to proceed for 45 minutes at room temperature. To quench the reaction and detect the phosphorylated product, 2 nM of a Europium-anti-phosphotyrosine antibody (Perkin Elmer #AD0161) and 70 nM SA-APC (Perkin-Elmer #CR130-100) were added together in 15 mM Tris pH 7.5, 40 mM EDTA, 0.01% tween 20. Final volume of the quenching solution was 10 μL. The resulting HTRF signal was measured after 30 minutes on an EnVision (Perkin-Elmer) reader using a time-resolved fluorescence protocol.
On the technique in general: In TR-FRET formats the signal depends on donor and acceptor labels being close together.
Regarding `Cn1ccc(Nc2cc(N[C@@H]3CS(=O)(=O)CC[C@@H]3N)cnc2C(N)=O)n1` (relative stereo) [Example 1.89, rel-5-{[(3S,4S)-4-amino-1,1-dioxidotetrahydro-2H-thiopyran-3-yl]amino}-3-[(1-methyl-1H-pyrazol-3-yl)amino]pyridine-2-carboxamide], the concentration for half-maximal inhibition (IC50) was 340 nM. Turning to `Cc1cc(C)nc(Nc2cc(N[C@H]3CC[C@@H]3N)cnc2C(N)=O)c1` (relative stereo) [Example 1.116, rel-5-{[(1S,2S)-2-aminocyclobutyl]amino}-3-[(4,6-dimethylpyridin-2-yl)amino]pyridine-2-carboxamide], the IC50 was found to be 55 nM. With `Cc1cc(C)nc(Nc2cc(N[C@@H]3C[C@H]3N)cnc2C(N)=O)c1` (relative stereo) [Example 2.13, rel-5-{[(1R,2R)-2-aminocyclopropyl]amino}-3-[(4,6-dimethylpyridin-2-yl)amino]pyridine-2-carboxamide], the IC50 amounted to 770 nM. Regarding `Cc1ccc(Nc2cc(N[C@@H]3CCCC[C@@H]3N)cnc2C(N)=O)nc1C` [Example 1.6, 5-{[(1R,2S)-2-aminocyclohexyl]amino}-3-[(5,6-dimethylpyridin-2-yl)amino)pyridine-2-carboxamide], the IC50 is 0.53 nM.

The experiment is the same for the next values; noted with them: GST-hSYK 5 pM, ATP 25 μM, 10-dose titration 10 μM to 0.508 nM; read-out: rhSYK Activity (IC50 rating).
`Cc1cc(C)nc(Nc2cc(N[C@@H]3CCC[C@@H]3N)cnc2C(N)=O)c1` (relative stereo) [Example 1.18, rel-5-{[(1R,2S)-2-aminocyclopentyl]amino}-3-[(4,6-dimethylpyridin-2-yl)amino]pyridine-2-carboxamide]: the half-inhibitory concentration (IC50) is less than 10 nM. As to `Cn1ccc(Nc2cc(N[C@@H]3CS(=O)(=O)CC[C@@H]3N)cnc2C(N)=O)n1` (relative stereo) [Example 1.89, rel-5-{[(3S,4S)-4-amino-1,1-dioxidotetrahydro-2H-thiopyran-3-yl]amino}-3-[(1-methyl-1H-pyrazol-3-yl)amino]pyridine-2-carboxamide], the IC50 lay within 100 to 1000 nM. In the case of `NC(=O)c1ncc(N[C@@H]2CS(=O)(=O)CC[C@@H]2N)cc1Nc1ccn(-c2ccc(F)cc2)n1` (relative stereo) [Example 1.90, rel-5-{[(3S,4S)-4-amino-1,1-dioxidotetrahydro-2H-thiopyran-3-yl]amino}-3-{[1-(4 fluorophenyl)-1H-pyrazol-3-yl]amino}pyridine-2-carboxamide], the IC50 is less than 10 nM. As to `CCc1cccc(Nc2cc(N[C@@H]3CS(=O)(=O)CC[C@@H]3N)cnc2C(N)=O)n1` (relative stereo) [Example 1.91, rel-5-{[(3S,4S)-4-amino-1,1-dioxidotetrahydro-2H-thiopyran-3-yl]amino}-3-[(6-ethylpyridin-2-yl)amino]pyridine-2 carboxamide], the IC50 is less than 10 nM.

`Cc1cc(C)nc(Nc2cc(N[C@H]3CC[C@@H]3N)cnc2C(N)=O)c1` (relative stereo) [Example 1.116, rel-5-{[(1S,2S)-2-aminocyclobutyl]amino}-3-[(4,6-dimethylpyridin-2-yl)amino]pyridine-2-carboxamide]: the IC50 is 10 to 100 nM. Consider `Cc1cc(C)nc(Nc2cc(N[C@H]3CS(=O)(=O)C[C@@H]3N)cnc2C(N)=O)c1` (relative stereo) [Example 2.6, rel-5-{[(3R,4R)-4-amino-1,1-dioxidotetrahydrothiophen-3-yl]amino}-3-[(4,6-dimethylpyridin-2-yl)amino]pyridine-2-carboxamide], for which the IC50 lay within 100 to 1000 nM. `Cc1cc(C)nc(Nc2cc(N[C@@H]3C[C@H]3N)cnc2C(N)=O)c1` (relative stereo) [Example 2.13, rel-5-{[(1R,2R)-2-aminocyclopropyl]amino}-3-[(4,6-dimethylpyridin-2-yl)amino]pyridine-2-carboxamide]: the IC50 was in the range of 100 to 1000 nM.

As to `Cc1cc(C)nc(Nc2cc(N[C@H]3CCC[C@H]3N)cnc2C(N)=O)c1` (single isomer, unassigned) [Example 1.25], the IC50 was 10 to 100 nM. On to `Cc1cc(C)nc(Nc2cc(N[C@H]3CCC[C@H]3N)cnc2C(N)=O)c1` (single isomer, unassigned) [Example 1.26], for which the IC50 was less than 10 nM. Take `Cc1cc(C)nc(Nc2cc(NC[C@H](C)N)cnc2C(N)=O)c1` [Example 1.3, 5-{[(2S)-2-aminopropyl]amino}-3-[(4,6-dimethylpyridin-2-yl)amino]pyridine-2-carboxamide]: the IC50 was less than 10 nM. Take `Cc1cccc(Nc2cc(NCCN)cnc2C(N)=O)n1` [Example 1.4, 5-[(2-aminoethyl)amino]-3-[(6-methylpyridin-2-yl)amino]pyridine-2-carboxamide]: the IC50 lay within 10 to 100 nM.

For the compound `Cc1cc(C)nc(Nc2cc(NCCN)cnc2C(N)=O)c1` [Example 1.5, 5-[(2-aminoethyl)amino]-3-[(4,6-dimethylpyridin-2-yl)amino]pyridine-2-carboxamide], the IC50 was less than 10 nM. Same read-out and setting: in the case of `Cc1ccc(Nc2cc(N[C@@H]3CCCC[C@@H]3N)cnc2C(N)=O)nc1C` [Example 1.6, 5-{[(1R,2S)-2-aminocyclohexyl]amino}-3-[(5,6-dimethylpyridin-2-yl)amino)pyridine-2-carboxamide] it was less than 10 nM; in that of `Cc1cccc(Nc2cc(N[C@@H]3CCCC[C@@H]3N)cnc2C(N)=O)n1` [Example 1.7, 5-{[(1R,2S)-2-aminocyclohexyl]amino}-3-[(6-methylpyridin-2-yl)amino]pyridine-2-carboxamide], less than 10 nM; in that of `NC(=O)c1ncc(N[C@@H]2CCCC[C@@H]2N)cc1Nc1ccc2ccccc2n1` [Example 1.9, 5-{[(1R,2S)-2-aminocyclohexyl]amino}-3-(quinolin-2-ylamino)pyridine-2-carboxamide], less than 10 nM. Same read-out and setting: to `Cc1nc(Nc2cc(NC[C@H](C)N)cnc2C(N)=O)ccc1-c1cn(C)cn1` [Example 1.10, 5-{[(2S)-2-aminopropyl]amino}-3-{[6-methyl-5-(1-methyl-1H-imidazol-4-yl)pyridin-2-yl]amino}pyridine-2-carboxamide] belongs less than 10 nM; to `Cc1nc(Nc2cc(N[C@@H]3CCCC[C@@H]3N)cnc2C(N)=O)ccc1-c1cnn(C)c1` [Example 1.11, 5-{[(1R,2S)-2-aminocyclohexyl]amino}-3-{[6-methyl-5-(1-methyl-1H-pyrazol-4-yl)pyridin-2-yl]amino}pyridine-2-carboxamide], less than 10 nM.

Consider `Cc1cc(Cl)cc(Nc2cc(N[C@@H]3CCCC[C@@H]3N)cnc2C(N)=O)n1` [Example 1.12, 5-{[(1R,2S)-2-aminocyclohexyl]amino}-3-[(4-chloro-6-methylpyridin-2-yl)amino]pyridine-2-carboxamide], for which the IC50 is less than 10 nM.

For the compound `COc1cccc(Nc2cc(N[C@@H]3CCCC[C@@H]3N)cnc2C(N)=O)n1` [Example 1.13, 5-{[(1R,2S)-2-aminocyclohexyl]amino}-3-[(6-methoxypyridin-2-yl)amino]pyridine-2-carboxamide], the IC50 is less than 10 nM. Take `NC(=O)c1ncc(N[C@@H]2CCCC[C@@H]2N)cc1Nc1ccn(-c2ccccc2)n1` [Example 1.14, 5-{[(1R,2S)-2-aminocyclohexyl]amino}-3-[(1-phenyl-1H-pyrazol-3-yl)amino]pyridine-2-carboxamide]: the IC50 is less than 10 nM. As for `NC(=O)c1ncc(N[C@@H]2CCCC[C@@H]2N)cc1Nc1cccc(-c2ccc3c(c2)CCO3)n1` [Example 1.15, 5-{[(1R,2S)-2-aminocyclohexyl]amino}-3-{[6-(2,3-dihydro-1-benzofuran-5-yl)pyridin-2-yl]amino}pyridine-2-carboxamide], the IC50 was less than 10 nM. Turning to `NC(=O)c1ncc(N[C@@H]2CCCC[C@@H]2N)cc1Nc1cccc(-c2ccc3c(c2)OCCO3)n1` [Example 1.16, 5-{[(1R,2S)-2-aminocyclohexyl]amino}-3-{[6-(2,3-dihydro-1,4-benzodioxin-6-yl)pyridin-2-yl]amino}pyridine-2-carboxamide], the 50% inhibitory concentration (IC50) was less than 10 nM.

Consider `NC(=O)c1ncc(N[C@@H]2CCCC[C@@H]2N)cc1Nc1ccc2nccn2n1` [Example 1.17, 5-{[(1R,2S)-2-aminocyclohexyl]amino}-3-(imidazo[1,2-b]pyridazin-6-ylamino)pyridine-2-carboxamide], for which the IC50 was less than 10 nM. As for `Cc1cc(C)nc(Nc2cc(NC(C)(C)CN)cnc2C(N)=O)c1` [Example 1.19, 5-[(2-amino-1,1-dimethylethyl)amino]-3-[(4,6-dimethylpyridin-2-yl)amino]pyridine-2-carboxamide], the IC50 lay within 10 to 100 nM. For `Cc1cc(C)nc(Nc2cc(NC(CN)c3ccccc3)cnc2C(N)=O)c1` (centres unmarked) [Example 1.21, 5-[(2-amino-1-phenylethyl)amino]-3-[(4,6-dimethylpyridin-2-yl)amino]pyridine-2-carboxamide], the IC50 is less than 10 nM.
